Experimental data as given in ChEMBL document CHEMBL2413072, “Synthesis and in vitro anticancer studies of novel C-2 arylidene congeners of lantadenes” (2013).

How the values were obtained:
Assay type in all cases: functional
HCT-116 = assay: Growth inhibition of human HCT116 cells by sulforhodamine B assay
NCI-H522 = assay: Growth inhibition of human NCI-H522 cells by sulforhodamine B assay
NCI-H460 = assay: Growth inhibition of human NCI-H460 cells by sulforhodamine B assay
NCI-H226 [1] = assay: Growth inhibition of human NCI-H226 cells by sulforhodamine B assay
HOP-62 = assay: Growth inhibition of human HOP62 cells by sulforhodamine B assay
A549 = assay: Growth inhibition of human A549/ATCC cells by sulforhodamine B assay
SNB-19 = assay: Growth inhibition of human SNB19 cells assessed as cell growth at 10^-8 M by sulforhodamine B assay; settings: read-out: Activity
SF-539 = assay: Growth inhibition of human SF539 cells assessed as cell growth at 10^-8 M by sulforhodamine B assay; settings: read-out: Activity
NCI-H322M = assay: Growth inhibition of human NCI-H322M cells assessed as cell growth at 10^-8 M by sulforhodamine B assay; settings: read-out: Activity
RXF 393 [2] = assay: Growth inhibition of human RXF393 cells by sulforhodamine B assay
CAKI-1 = assay: Growth inhibition of human CAKI-1 cells by sulforhodamine B assay
A498 [3] = assay: Growth inhibition of human A498 cells by sulforhodamine B assay
UACC-62 [4] = assay: Growth inhibition of human UACC62 cells by sulforhodamine B assay
SF-295 = assay: Growth inhibition of human SF295 cells by sulforhodamine B assay
MDA-MB-231 = assay: Growth inhibition of human MDA-MB-231 cells assessed as cell growth at 10^-4 M by sulforhodamine B assay; settings: read-out: Activity
UO-31 = assay: Growth inhibition of human UO31 cells assessed as cell growth at 10^-4 M by sulforhodamine B assay; settings: read-out: Activity
OVCAR-4 = assay: Growth inhibition of human OVCAR4 cells assessed as cell growth at 10^-4 M by sulforhodamine B assay; settings: read-out: Activity
IGROV-1 = assay: Growth inhibition of human IGROV1 cells assessed as cell growth at 10^-4 M by sulforhodamine B assay; settings: read-out: Activity
UACC-62 [5] = assay: Growth inhibition of human UACC62 cells assessed as cell growth at 10^-4 M by sulforhodamine B assay; settings: read-out: Activity
UACC-257 [6] = assay: Growth inhibition of human UACC257 cells assessed as cell growth at 10^-4 M by sulforhodamine B assay; settings: read-out: Activity
SK-MEL-5 = assay: Growth inhibition of human SK-MEL-5 cells assessed as cell growth at 10^-4 M by sulforhodamine B assay; settings: read-out: Activity
SK-MEL-28 [7] = assay: Growth inhibition of human SK-MEL-28 cells assessed as cell growth at 10^-4 M by sulforhodamine B assay; settings: read-out: Activity
Malme-3M [8] = assay: Growth inhibition of human MALME-3M cells assessed as cell growth at 10^-4 M by sulforhodamine B assay; settings: read-out: Activity
NCI-H226 [9] = assay: Growth inhibition of human NCI-H226 cells assessed as cell growth at 10^-4 M by sulforhodamine B assay; settings: read-out: Activity
SR = assay: Growth inhibition of human SR cells assessed as cell growth at 10^-4 M by sulforhodamine B assay; settings: read-out: Activity
A498 [10] = assay: Growth inhibition of human A498 cells assessed as cell growth at 10^-6 M by sulforhodamine B assay; settings: read-out: Activity
OVCAR-8 = assay: Growth inhibition of human OVCAR8 cells assessed as cell growth at 10^-6 M by sulforhodamine B assay; settings: read-out: Activity
UACC-257 [11] = assay: Growth inhibition of human UACC257 cells assessed as cell growth at 10^-6 M by sulforhodamine B assay; settings: read-out: Activity
MDA-MB-435 = assay: Growth inhibition of human MDA-MB-435 cells assessed as cell growth at 10^-6 M by sulforhodamine B assay; settings: read-out: Activity
Malme-3M [12] = assay: Growth inhibition of human MALME-3M cells assessed as cell growth at 10^-6 M by sulforhodamine B assay; settings: read-out: Activity
HT-29 = assay: Growth inhibition of human HT-29 cells assessed as cell growth at 10^-6 M by sulforhodamine B assay; settings: read-out: Activity
OVCAR-5 = assay: Growth inhibition of human OVCAR5 cells assessed as cell growth at 10^-7 M by sulforhodamine B assay; settings: read-out: Activity
OVCAR-3 = assay: Growth inhibition of human OVCAR3 cells assessed as cell growth at 10^-7 M by sulforhodamine B assay; settings: read-out: Activity
SK-MEL-28 [13] = assay: Growth inhibition of human SK-MEL-28 cells assessed as cell growth at 10^-7 M by sulforhodamine B assay; settings: read-out: Activity
U-251 = assay: Growth inhibition of human U251 cells assessed as cell growth at 10^-7 M by sulforhodamine B assay; settings: read-out: Activity
TK-10 = assay: Growth inhibition of human TK10 cells assessed as cell growth at 10^-8 M by sulforhodamine B assay; settings: read-out: Activity
RXF 393 [14] = assay: Growth inhibition of human RXF393 cells assessed as cell growth at 10^-8 M by sulforhodamine B assay; settings: read-out: Activity
[15] = read-out: LC50 (the source's name)
[16] = read-out: pLC50 (the source's name) (converted)

## C/C=C(/C)C(=O)O[C@@H]1CC(C)(C)C[C@H]2C3=CC[C@@H]4[C@@]5(C)CC[C@H](O)C(C)(C)[C@@H]5CC[C@@]4(C)[C@]3(C)CC[C@@]12C(=O)O [Reduced Lantadene A]
HCT-116; read-out: GI50
  GI50: 2.45 µM
HCT-116; read-out: LC50
  LC50: 65 µM
HCT-116; read-out: TGI
  TGI: 10.1 µM
HCT-116; read-out: pGI50 (converted)
  GI50: 2.45 µM
HCT-116; read-out: pLC50 (converted)
  LC50: 64.6 µM
HCT-116; read-out: pTGI (converted)
  TGI: 10.2 µM
NCI-H522; read-out: GI50
  GI50: 2.18 µM
NCI-H522; [15]
  CC50: 32.4 µM
NCI-H522; read-out: TGI
  TGI: 5.42 µM
NCI-H522; read-out: pGI50 (converted)
  GI50: 2.19 µM
NCI-H522; [16]
  CC50: 32.4 µM
NCI-H522; read-out: pTGI (converted)
  TGI: 5.37 µM
NCI-H460; read-out: GI50
  GI50: 2.84 µM
NCI-H460; read-out: LC50
  LC50: > 100 µM
NCI-H460; read-out: TGI
  TGI: 11.7 µM
NCI-H460; read-out: pGI50 (converted)
  GI50: 2.82 µM
NCI-H460; read-out: pLC50 (converted)
  LC50: > 100 µM
NCI-H460; read-out: pTGI (converted)
  TGI: 11.7 µM
NCI-H226 [1]; read-out: GI50
  GI50: 1.71 µM
NCI-H226 [1]; read-out: LC50
  LC50: 8.43 µM
NCI-H226 [1]; read-out: TGI
  TGI: 3.79 µM
NCI-H226 [1]; read-out: pGI50 (converted)
  GI50: 1.7 µM
NCI-H226 [1]; read-out: pLC50 (converted)
  LC50: 8.51 µM
NCI-H226 [1]; read-out: pTGI (converted)
  TGI: 3.8 µM
HOP-62; read-out: GI50
  GI50: 1.87 µM
HOP-62; read-out: TGI
  TGI: 3.55 µM
HOP-62; read-out: pGI50 (converted)
  GI50: 1.86 µM
HOP-62; read-out: pTGI (converted)
  TGI: 3.55 µM
A549; read-out: GI50
  GI50: 1.19 µM
A549; [15]
  CC50: 6.37 µM
A549; read-out: TGI
  TGI: 2.76 µM
A549; read-out: pGI50 (converted)
  GI50: 1.2 µM
A549; [16]
  CC50: 6.31 µM
A549; read-out: pTGI (converted)
  TGI: 2.75 µM
SNB-19
  growth at 0.01 µM: 90%
SF-539
  growth at 0.01 µM: 100%
NCI-H322M
  growth at 0.01 µM: 102%
RXF 393 [2]; read-out: GI50
  GI50: 1.77 µM
RXF 393 [2]; [15]
  CC50: 8.29 µM
RXF 393 [2]; read-out: TGI
  TGI: 3.83 µM
RXF 393 [2]; read-out: pGI50 (converted)
  GI50: 1.78 µM
RXF 393 [2]; [16]
  CC50: 8.32 µM
RXF 393 [2]; read-out: pTGI (converted)
  TGI: 3.8 µM
CAKI-1; read-out: GI50
  GI50: 2.48 µM
CAKI-1; [15]
  CC50: 56.3 µM
CAKI-1; read-out: TGI
  TGI: 9.08 µM
CAKI-1; read-out: pGI50 (converted)
  GI50: 2.45 µM
CAKI-1; [16]
  CC50: 56.2 µM
CAKI-1; read-out: pTGI (converted)
  TGI: 9.12 µM
A498 [3]; read-out: GI50
  GI50: 1.54 µM
A498 [3]; [15]
  CC50: 7.38 µM
A498 [3]; read-out: TGI
  TGI: 3.37 µM
A498 [3]; read-out: pGI50 (converted)
  GI50: 1.55 µM
A498 [3]; [16]
  CC50: 7.41 µM
A498 [3]; read-out: pTGI (converted)
  TGI: 3.39 µM
UACC-62 [4]; read-out: GI50
  GI50: 1.56 µM
UACC-62 [4]; [15]
  CC50: 7.83 µM
UACC-62 [4]; read-out: TGI
  TGI: 3.5 µM
UACC-62 [4]; read-out: pGI50 (converted)
  GI50: 1.55 µM
UACC-62 [4]; [16]
  CC50: 7.76 µM
UACC-62 [4]; read-out: pTGI (converted)
  TGI: 3.47 µM
SF-295; read-out: GI50
  GI50: 1.62 µM
SF-295; [15]
  CC50: 7.74 µM
SF-295; read-out: TGI
  TGI: 3.54 µM
SF-295; read-out: pGI50 (converted)
  GI50: 1.62 µM
SF-295; [16]
  CC50: 7.76 µM
SF-295; read-out: pTGI (converted)
  TGI: 3.55 µM
MDA-MB-231
  growth at 100 µM: -63%
UO-31
  growth at 100 µM: -66%
OVCAR-4
  growth at 100 µM: -21%
IGROV-1
  growth at 100 µM: -58%
UACC-62 [5]
  growth at 100 µM: -70%
UACC-257 [6]
  growth at 100 µM: -69%
SK-MEL-5
  growth at 100 µM: -63%
SK-MEL-28 [7]
  growth at 100 µM: -41%
Malme-3M [8]
  growth at 100 µM: -62%
NCI-H226 [9]
  growth at 100 µM: -73%
SR
  growth at 100 µM: -13%
A498 [10]
  growth at 1 µM: 78%
OVCAR-8
  growth at 1 µM: 97%
UACC-257 [11]
  growth at 1 µM: 95%
MDA-MB-435
  growth at 1 µM: 90%
Malme-3M [12]
  growth at 1 µM: 92%
HT-29
  growth at 1 µM: 105%
OVCAR-5
  growth at 0.1 µM: 103%
OVCAR-3
  growth at 0.1 µM: 112%
SK-MEL-28 [13]
  growth at 0.1 µM: 88%
U-251
  growth at 0.1 µM: 90%
TK-10
  growth at 0.01 µM: 103%
RXF 393 [14]
  growth at 0.01 µM: 93%
